From ChEMBL document CHEMBL1145288, “5-substituted, 6-substituted, and unsubstituted 3-heteroaromatic pyridine analogues of nicotine as selective inhibitors of cytochrome P-450 2A6” (J Med Chem, 2005) come the findings set out here.

One data set has as its target Cytochrome P450 2D6 (Homo sapiens, UniProt P10635). The data set can be described thus: Inhibitory concentration value against human cytochrome P-450 2D6.
For another data set, the system named is CYP2D6 versus CYP2A6. In words: Ratio of inhibition of human cytochrome P-450 2D6 to 2A6 was determined; Expressed as IC50(CYP2D6)/IC50(CYP2A6).
In another data set the test system is CYP3A4 versus CYP2A6. The data set can be described thus: Ratio of inhibition of human cytochrome P-450 3A4 to 2A6 was determined; Expressed as IC50(CYP3A4)/IC50(CYP2A6).
The target of a further data set is Cytochrome P450 2E1 (Homo sapiens, UniProt P05181). The data set can be described thus: Inhibitory concentration value against human cytochrome P-450 2E1.
Chain of Cytochrome P450 2E1 (P05181 whole entry): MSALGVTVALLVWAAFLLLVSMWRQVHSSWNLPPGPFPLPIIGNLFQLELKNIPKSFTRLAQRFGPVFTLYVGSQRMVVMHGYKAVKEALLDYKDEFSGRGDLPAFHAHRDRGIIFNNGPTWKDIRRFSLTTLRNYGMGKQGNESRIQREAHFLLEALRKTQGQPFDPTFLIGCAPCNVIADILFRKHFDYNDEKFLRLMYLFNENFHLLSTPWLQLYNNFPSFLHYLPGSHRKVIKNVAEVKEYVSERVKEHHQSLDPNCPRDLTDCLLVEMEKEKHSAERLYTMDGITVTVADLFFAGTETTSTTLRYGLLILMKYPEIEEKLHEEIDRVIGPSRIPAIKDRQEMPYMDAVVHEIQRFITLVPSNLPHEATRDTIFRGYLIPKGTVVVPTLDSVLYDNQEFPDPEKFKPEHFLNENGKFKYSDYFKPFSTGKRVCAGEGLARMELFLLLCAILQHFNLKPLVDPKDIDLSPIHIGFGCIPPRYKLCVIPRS
For a further data set, the system named is CYP2E1 versus CYP2A6. In words: Ratio of inhibition of human cytochrome P-450 2E1 to 2A6 was determined; Expressed as IC50(CYP2E1)/IC50(CYP2A6).
Data set [1] deals with T1, Cytochrome P450 2A6 (Homo sapiens, UniProt P11509).
T1 sequence (P11509 whole entry): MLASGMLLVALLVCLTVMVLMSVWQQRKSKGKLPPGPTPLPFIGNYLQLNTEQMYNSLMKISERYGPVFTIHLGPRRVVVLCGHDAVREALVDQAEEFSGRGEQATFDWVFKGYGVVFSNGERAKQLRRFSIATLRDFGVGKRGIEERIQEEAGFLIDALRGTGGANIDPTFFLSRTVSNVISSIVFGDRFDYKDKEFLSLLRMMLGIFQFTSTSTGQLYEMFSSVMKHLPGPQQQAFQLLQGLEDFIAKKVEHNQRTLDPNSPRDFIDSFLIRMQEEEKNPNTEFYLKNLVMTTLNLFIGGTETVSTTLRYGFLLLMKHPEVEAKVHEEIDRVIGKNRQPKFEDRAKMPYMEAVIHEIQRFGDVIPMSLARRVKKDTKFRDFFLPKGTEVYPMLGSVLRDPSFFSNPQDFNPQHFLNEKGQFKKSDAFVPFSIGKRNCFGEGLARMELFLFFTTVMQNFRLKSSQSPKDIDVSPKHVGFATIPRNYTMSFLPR
In words: Inhibitory concentration value against human cytochrome P-450 2A6.

The target in the next data set is Cytochrome P450 2C19 (Homo sapiens, UniProt P33261). The data set can be described thus: Inhibitory concentration value against human cytochrome P-450 2C19.
Chain of Cytochrome P450 2C19 (P33261 whole entry): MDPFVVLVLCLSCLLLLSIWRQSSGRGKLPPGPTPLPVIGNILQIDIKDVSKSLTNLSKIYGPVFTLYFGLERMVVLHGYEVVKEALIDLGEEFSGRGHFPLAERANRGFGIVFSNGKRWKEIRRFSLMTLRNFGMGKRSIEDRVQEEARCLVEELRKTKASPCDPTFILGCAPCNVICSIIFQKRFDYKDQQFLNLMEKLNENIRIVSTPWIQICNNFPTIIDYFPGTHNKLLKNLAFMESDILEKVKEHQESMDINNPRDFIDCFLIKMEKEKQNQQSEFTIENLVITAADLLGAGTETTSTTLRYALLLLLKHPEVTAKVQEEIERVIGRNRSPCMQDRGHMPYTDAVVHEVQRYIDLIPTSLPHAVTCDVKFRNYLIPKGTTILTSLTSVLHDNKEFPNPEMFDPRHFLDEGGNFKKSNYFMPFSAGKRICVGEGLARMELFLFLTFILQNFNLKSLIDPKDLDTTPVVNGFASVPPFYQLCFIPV
Another data set concerns CYP2B6 versus CYP2A6. In words: Ratio of inhibition of human cytochrome P-450 2B6 to 2A6 was determined; Expressed as IC50(CYP2B6)/IC50(CYP2A6).
For the next data set, the target named is Cytochrome P450 2C9 (Homo sapiens, UniProt P11712). The data set can be described thus: Inhibitory concentration against human cytochrome P-450 2C9.
Chain of Cytochrome P450 2C9 (P11712 whole entry): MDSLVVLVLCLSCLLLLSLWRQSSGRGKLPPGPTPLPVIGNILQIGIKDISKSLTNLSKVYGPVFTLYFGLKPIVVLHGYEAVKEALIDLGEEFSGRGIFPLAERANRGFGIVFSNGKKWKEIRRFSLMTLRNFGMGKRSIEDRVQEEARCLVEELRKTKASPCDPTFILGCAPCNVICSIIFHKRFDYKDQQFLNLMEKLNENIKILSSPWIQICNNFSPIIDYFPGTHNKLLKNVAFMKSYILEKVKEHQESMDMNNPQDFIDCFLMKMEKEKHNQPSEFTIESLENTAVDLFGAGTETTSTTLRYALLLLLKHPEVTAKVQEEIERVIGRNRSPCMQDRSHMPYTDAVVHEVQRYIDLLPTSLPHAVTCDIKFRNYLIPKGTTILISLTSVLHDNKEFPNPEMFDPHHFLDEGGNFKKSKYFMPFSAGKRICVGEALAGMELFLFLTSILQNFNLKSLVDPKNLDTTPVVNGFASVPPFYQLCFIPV
In a further data set the target is T2, Cytochrome P450 2B6 (Homo sapiens, UniProt P20813).
T2 sequence (P20813 whole entry): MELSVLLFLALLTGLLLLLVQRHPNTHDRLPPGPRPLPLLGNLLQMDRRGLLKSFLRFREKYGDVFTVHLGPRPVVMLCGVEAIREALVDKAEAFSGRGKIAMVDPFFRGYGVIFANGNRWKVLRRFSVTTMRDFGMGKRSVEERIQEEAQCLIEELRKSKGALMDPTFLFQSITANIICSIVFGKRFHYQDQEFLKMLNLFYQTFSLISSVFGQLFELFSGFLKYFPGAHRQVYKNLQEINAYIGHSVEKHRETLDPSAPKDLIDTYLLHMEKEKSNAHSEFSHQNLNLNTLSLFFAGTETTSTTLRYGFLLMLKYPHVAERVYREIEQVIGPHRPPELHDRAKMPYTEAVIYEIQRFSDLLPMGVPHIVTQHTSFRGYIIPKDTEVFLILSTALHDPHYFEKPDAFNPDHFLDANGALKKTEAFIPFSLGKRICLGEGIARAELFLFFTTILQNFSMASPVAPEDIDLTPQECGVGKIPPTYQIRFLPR
In words: Inhibitory concentration value against human cytochrome P-450 2B6.

For data set [2], the target named is T1, Cytochrome P450 2A6. The data set can be described thus: Effect on coumarin 7-hydroxylation by human Cytochrome P-450 2A6.
The target of the next data set is Cytochrome P450 3A4 (Homo sapiens, UniProt P08684). The data set can be described thus: Inhibitory concentration value against human cytochrome P-450 3A4.
Chain of Cytochrome P450 3A4 (P08684 whole entry): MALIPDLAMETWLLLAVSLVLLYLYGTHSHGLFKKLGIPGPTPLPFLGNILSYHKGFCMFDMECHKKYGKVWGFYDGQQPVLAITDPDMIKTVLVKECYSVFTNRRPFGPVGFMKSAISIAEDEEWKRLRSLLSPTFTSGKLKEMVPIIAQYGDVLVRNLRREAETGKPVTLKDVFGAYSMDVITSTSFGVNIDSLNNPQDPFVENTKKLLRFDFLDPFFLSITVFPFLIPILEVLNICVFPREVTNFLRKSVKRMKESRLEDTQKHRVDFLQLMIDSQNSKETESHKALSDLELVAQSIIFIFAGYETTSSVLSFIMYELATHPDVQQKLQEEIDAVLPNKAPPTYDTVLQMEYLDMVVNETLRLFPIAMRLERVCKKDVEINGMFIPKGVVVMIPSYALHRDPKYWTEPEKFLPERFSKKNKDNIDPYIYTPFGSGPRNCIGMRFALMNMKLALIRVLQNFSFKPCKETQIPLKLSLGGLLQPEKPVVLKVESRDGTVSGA
The next data set concerns CYP2C19 versus CYP2A6. In words: Ratio of inhibition of human cytochrome P-450 2C19 to 2A6 was determined; Expressed as IC50(CYP2C19)/IC50(CYP2A6).
For the next data set, the system named is CYP2C9 versus CYP2A6. In words: Ratio of inhibition of human cytochrome P-450 2C9 to 2A6 was determined; Expressed as IC50(CYP2C9)/IC50(CYP2A6).

Broadly, the pIC50 is the negative decadic logarithm of the IC50, by convention in mol/L. Read a high pIC50 as a small IC50. What is called pKi is −log10 of the Ki, conventionally taken in molar units. A high value points to a low Ki.

Each structure is given as a SMILES string. pIC50, pKi: −log10 of the molar value.

Chain of Cytochrome P450 2D6 (P10635 whole entry): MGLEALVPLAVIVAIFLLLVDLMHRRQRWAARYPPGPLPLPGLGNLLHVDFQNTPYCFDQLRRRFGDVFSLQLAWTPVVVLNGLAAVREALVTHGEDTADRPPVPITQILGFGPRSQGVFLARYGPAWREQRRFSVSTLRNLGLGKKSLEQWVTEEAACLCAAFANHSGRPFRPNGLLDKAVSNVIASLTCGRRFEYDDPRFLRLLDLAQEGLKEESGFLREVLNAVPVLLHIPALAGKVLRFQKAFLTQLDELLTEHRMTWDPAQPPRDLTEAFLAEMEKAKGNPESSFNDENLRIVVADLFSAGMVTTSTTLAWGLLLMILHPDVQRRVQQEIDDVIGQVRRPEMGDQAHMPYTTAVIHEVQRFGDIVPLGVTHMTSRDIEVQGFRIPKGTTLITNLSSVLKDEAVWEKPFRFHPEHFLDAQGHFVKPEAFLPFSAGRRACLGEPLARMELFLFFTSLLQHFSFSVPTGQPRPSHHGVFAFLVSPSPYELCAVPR

As for `C[n+]1c[nH]cc1-c1cccnc1`, the negative-log IC50 (pIC50) was 3.66 against Cytochrome P450 2D6; 5.39 on Cytochrome P450 2E1; 6.12 at Cytochrome P450 2A6 [1]; 3.91 against Cytochrome P450 2C19; 4.10 against Cytochrome P450 2C9; 3.84 at Cytochrome P450 2B6. This molecule showed a negative logarithm of the IC50 (pIC50) on Cytochrome P450 3A4 of 3.58. Besides, the selectivity ratio amounted to 289 in the data set with CYP2D6 versus CYP2A6; 349 with CYP3A4 versus CYP2A6; 5 in the data set with CYP2E1 versus CYP2A6; 195 in the data set on CYP2B6 versus CYP2A6; 163 in the data set on CYP2C19 versus CYP2A6; 106 with CYP2C9 versus CYP2A6. The molecule also showed a pKi on Cytochrome P450 2A6 [2] of 6.89.
